Results from publication PMC9332833 (Cancers, 2022).

Experiments:
[1] = tested on: CD34+/CD38- leukemia stem cells from CML patients; assay: Annexin V-FITC/PI apoptosis in CD34+/CD38- subpopulation; format: cell-based, human; conditions: 2.5 or 5 µM, within 24 h, 3 patients; dose dependent
Method: Pre-cultured cells were treated with BK124.1 or DMSO for 24 h. For purity analysis, cells were stained with anti-human CD34-APC antibody, anti-human CD38-PE (Biolegend, San Diego, CA, USA), and propidium iodide according to the manufacturers’ protocols. For apoptosis analysis, cells were additionally stained with Annexin V-FITC kit (BD, Franklin Lakes, NJ, USA) according to the manufacturer’s protocol. Appropriate isotype controls were included. Stained cells were immediately analyzed on a BD LSRFortessa flow cytometer with FlowJo software (BD, Franklin Lakes, NJ, USA), after exclusion of doublets. Purity was analyzed on live cells only, and apoptosis separately for each population of cells (CD34^+/CD38^+ or CD34^+/CD38^−).
[…] Next, we isolated CD34+ cells (EasySep™ Human CD34 Positive Selection Kit II, StemCell Technologies, Vancouver, Canada), counted them and assessed viability with Muse Cell Analyzer (Merck Millipore, Burlington, MA, USA). […] The purity of the live CD34+ fraction was assessed by flow cytometry with anti-human CD34-APC antibody, compared with an appropriate isotype control (Biolegend, San Diego, CA, USA), and propidium iodide (Sigma-Aldrich, St. Louis, MO, USA). […]
[…] In both cases stained cells were immediately analyzed on a BD LSRFortessa flow cytometer and analyzed with FlowJo software (BD, Franklin Lakes, NJ, USA). […]

[2] = Stability of BK124.1 concentrate for injection; format: physicochemical; conditions: 1 mg BK124.1 in 50% Solutol HS 15/50% ethanol, 30-36 °C
Description: Additional file 2: Supplementary methods
The antibodies (Ab) used in the flow cytometry and immunoblotti ng experiments are listed according to the targeted protein and the vendor. Antibodies: BD Transduction Laboratories - p38 (ref. 612288), p-p38 (ref. 612289); Cell Signalling Technologies - c-Abl (ref. 2862), Akt (pan) (C67E7) (ref. 4691), STAT5 […]
(ref. 9102); Santa Cruz Biotechnology - Lamin B1 (A11) (ref. sc-377000), JNK, (ref. sc-7345), p-JNK (ref. sc-6254); Sigma - α-tubulin (ref. T-6074). Biolegend, San Diego, CA, USA - CD34 (CD34-APC), CD38 (anti- […]
BK124.1 preparation for injection
In the first step, 50 µL of Solutol HS 15 and 50 µL of anhydrous ethanol 99.8% were added to 1 mg of BK124.1, to obtain a solution of 50% Solutol HS 15/50% ethanol. This solution was shaken (1-2 h) at 30-40 °C until BK124.1 was completely dissolved. This solution was stable for 48 hours at temperatures between 30-36 °C. This concentrate is sticky, has poor filtration and portioning properties, and so cannot be administered intravenously or intraperitoneally without dilution. Therefore, in the second step, the prepared concentrate was diluted with aqua pro injectione to obtain a concentration of 10% Solutol HS 15/10% ethanol. […]

[3] = tested on: K562 cells; set-up: method as in PMID 26902600, PMID 31487824; conditions: chronic myelogenous (CML) K562 cells from blast crisis; cited from earlier work
[4] = Blood morphology in K562 xenograft mice; conditions: for GRA / MON / HGB / WBC / MPV / RBC / RDW / MCH / MCHC / HCT / MCV / LYMP: N=4; for GRA / MON / LYMP: standard range 0.0-99.0; for HGB: standard range 1.1-18; for WBC: standard range 3.0-15; for MPV: standard range 4.6-7.3; for RBC: standard range 5.0-12; for RDW: standard range 11.5-14.5; for MCH: standard range 12-24.5; for MCHC: standard range 21.6-42; for HCT: standard range 36-52; for MCV: standard range 44-69
Method: Eight-week-old female NOD.Cg-Prkdcscid Il2rgtm1Wjl/SzJ NSG mice (Jackson Laboratory, Bar Harbor, ME, USA) were injected subcutaneously into the dorsal fold with 1 × 10^6 K562 cells of the human chronic myeloid leukemia (CML) line in a final volume of 100 µL (0.5% of the mouse weight). On day 3 after cell administration, mice were randomly assigned to each group, and on days 4–17 of the experiment, the selected tested compounds and control solutions were administered intraperitoneally or orally. During the experiment, subcutaneous tumors and body weight were measured daily. Tumor growth during the experiment was measured with an electronic display caliper. The theoretical tumor volume [mm], was calculated according to the formula (a^2 × b) * 0.5, where a is the shorter tumor axis [mm] and b is the longer tumor axis [mm]. On day 26, the experiment was terminated: blood was collected and analyzed for cellular morphology and standard biochemistry metabolites. Tumors were weighed.
Control and treated mice were grouped according to the tested compounds and the scheme of their administrations (doses, administration frequencies, routes of administration) in the CML xenogeneic model obtained by subcutaneous transplantation of 1 × 10^6 cells of the human CML blast line K562 into mice NOD.Cg-Prkdcscid Il2rgtm1Wjl/SzJ (NSG).
Hydroxyurea K562 500 mg/kg, IP Aqua pro 1 x daily 8

[5] = 20 mg/kg IP daily 14 days, mean ± SD
[6] = 30 mg/kg IP daily 14 days, mean ± SD
[7] = 30 mg/kg IP daily 14 days, mean

For `CCC12C(=O)C(CC)(C(c3ccccc3)=C1c1ccccc1)C1C(=O)N(CC(O)CNC(C)C)C(=O)C12` (stereo not shown) [BK124.1, 4-[2-hydroxy-3-(propan-2-ylamino)propyl]-1,7-diethyl-8,9-diphenyl-4-azatricyclo [5.2.1.02,6]dec-8-ene-3,5,10-trione], the “Apoptosis in CD34+/CD38- leukemia stem cells” value [1] is given as “induced apoptosis”, the “Time the solution was stable” value [2] is given as 48 h and the “Toxicity towards human leukemia cells” value [3] is given as “selectively toxic”. It also gave a GRA [4, 5] of 39.3±9.8%, an MON [4, 5] of 17.8±2.8% and an HGB [4, 5] of 12.3 ± 0.7 g/dL. For the same compound, the WBC [4, 5] was 14.9±4.7 103/μL, the MPV [4, 5] was 5.0±0.2 μm3 and the RBC [4, 5] was 7.1±0.4 106/μL. It also gave an RDW [4, 5] of 13.1±0.4%, an MCH [4, 5] of 17.3 ± 0.3 pg and an MCHC [4, 5] of 32.4 ± 0.3 g/dL. For the same compound, the HCT [4, 5] was 38.0±2.3%, the MCV [4, 5] was 53.3±0.5 and the LYMP ([4]; 20 mg/kg IP daily 14 days, mean) was 42.9%. The MON [4, 6] was 15.4±3.8%, the HGB [4, 6] was 13.5 ± 0.5 g/dL and the WBC [4, 6] was 10.5±5.0 103/μL. The MPV [4, 6] was 5.1±0.2 μm3, the RBC [4, 6] was 7.9±0.2 106/μL and the RDW [4, 6] was 12.9±0.1%. For the same compound, the MCH [4, 6] was 17.2 ± 0.4 pg, the MCHC [4, 6] was 32.4 ± 0.6 g/dL and the HCT [4, 6] was 41.7±0.9%. For the same compound, the MCV [4, 6] was 52.8±1.0, the GRA [4, 7] was 43.1% and the LYMP [4, 7] was 41.6%. For the same compound, the Blood morphology parameters ([4]; doses as in Table S3) was “within the norm”.
